In general, IC50 refers to the concentration at which inhibition is half-maximal. Read a high IC50 as weaker potency in that assay.

This note sets out measurements from ChEMBL document CHEMBL5604062, “ASAP - ZIKV NS2B-NS3 protease fluorescence dose response” (2024).

Where “and” joins values, the source holds several entries; their conditions need not be identical. Equal values may be shown once.

Chain of Nonstructural protein 3 (A0A024AXB9 whole entry): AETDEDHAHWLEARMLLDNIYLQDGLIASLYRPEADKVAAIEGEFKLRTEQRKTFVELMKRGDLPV

The assay concerns the target Nonstructural protein 3 (Zika virus, UniProt A0A024AXB9). The assay can be described thus: Functional biochemical assay to identify treatments for viral infectious disease that targets Zika NS2B-NS3 protease. Utilizing a direct enzyme activity measurement method, reading the fluorescence intensity is used to characterize the relative potency of inhibitors as IC50. More on the design: species or system PRVABC59.
Compound `c1ccc2nc(SCc3cn4ccccc4n3)cnc2c1` showed an IC50 of more than 99.5 µM.
Turning to `c1ccc(C2CCN(Cc3ccc4nccnc4c3)CC2)nc1`, the IC50 is more than 99.5 µM.
To `c1cc2sccc2c(N2CCN(Cc3ccc4cn[nH]c4c3)CC2)n1` belongs more than 99.5 µM; to `O=C(O)c1sc2cccnc2c1Br`, more than 99.5 µM; to `Brc1cnn(C2CCN(Cc3csnn3)CC2)c1`, more than 99.5 µM.
To `COc1ccc2c(O)nn(S(=O)(=O)c3ccc(C(=O)O)cc3)c2c1` belongs more than 99.5 µM.
To `[O-][S@@+](Cc1nc(-c2cccs2)no1)c1cccs1` belongs more than 99.5 µM; to `O=C(O)c1c(Br)sc2nnsc12`, 40.2 µM.
`C[S@@+]([O-])c1nncn1Cc1ccc(Cl)s1` had a half-inhibitory concentration (IC50) of more than 99.5 µM.
The compound `O=c1[nH]c(CSc2ccccc2Cl)nc2ccsc12` returned an IC50 of more than 99.5 µM.
In the case of `Cc1nnc(CSc2ncnc3sccc23)o1`, the IC50 is more than 99.5 µM.
Consider `c1nnc(SCCCSc2nncs2)s1`, for which the half-inhibitory concentration (IC50) is more than 99.5 µM.
In turn, `O=c1ccn(Cc2cc(=O)n3ccccc3n2)c2ccsc12` displayed an IC50 of more than 99.5 µM.
To `Brc1nc(Br)n(Cc2cscn2)n1` belongs more than 99.5 µM.
To `Cn1ncnc1Sc1nc(C2CCCC2)ns1` belongs more than 99.5 µM; to `O=c1c2ccccc2nnn1CSc1nnc(-c2ccccc2)o1`, more than 99.5 µM; to `COCc1nn(CC#Cc2ccc(Cl)cc2)c(=O)o1`, more than 99.5 µM.
The compound `NCc1cccc(NC(=O)c2cc(C3CC3)nc3ccc(Cl)cc23)c1` came in with an IC50 of more than 99.5 µM.
Compound `O=C(Nc1cc(Cl)cc(C(=O)Nc2ccnc([C@H]3CCCN3)n2)c1)OCc1ccccc1` returned an IC50 of 82.6 µM.
In the case of `[O-][S@@+](Cc1ncccn1)c1ncccc1Br`, the IC50 was more than 99.5 µM.
To `NCc1cccc([C@H]2C[C@@H]2c2cc(Cl)cc(NC(=O)OCc3ccccc3)c2)c1` belongs 7.36 µM and 6.03 µM; to `Cn1cncc1COc1cccc([C@H](NC(=O)OCc2ccccc2)C(=O)Nc2cccc(CN)c2)c1`, 32.6 µM.
Take `O=S(=O)(c1cccs1)N1CCN(CC=Cc2ccccc2)CC1`: the IC50 is more than 99.5 µM.
To `CS(=O)(=O)N(c1cc(Cl)cc(C(=O)Nc2cccc(CN)c2)c1)S(C)(=O)=O` belongs more than 99.5 µM.
`Cc1cc(CN)cc(C)c1NS(=O)(=O)c1ccc(Oc2ccccc2Cl)cc1` displayed an IC50 of 81.3 µM. In other words, the double-digit micromolar range.
To `N#Cc1ccc(OCCn2nnn(-c3ccccc3)c2=O)cc1` belongs more than 99.5 µM.
To `NC1(c2cccc(NS(=O)(=O)c3ccc(Oc4ccccc4Cl)cc3)c2)CCOCC1` belongs more than 99.5 µM; to `N#Cc1ccc(S(=O)(=O)CCn2nc(-c3ccco3)oc2=O)cc1`, more than 99.5 µM.
To `O=c1ccc(N2CCN(Cc3c[nH]c4ccccc34)CC2)c[nH]1` belongs more than 99.5 µM.
`NCc1cccc(NC(=O)c2cc(N)cc(Cl)c2)c1`: the IC50 was determined as 39.6 µM.
For the compound `c1cncc(CN2CC[C@H](NCc3c[nH]c4ccccc34)C2)c1`, the IC50 is more than 99.5 µM.
Compound `CCOc1cccc(-c2ccc(S(=O)(=O)Nc3ccc(Cl)cc3C(=O)O)cc2C)c1` yielded an IC50 of 11.1 µM.
To `NC1CN(c2ccc(NS(=O)(=O)c3ccc(Oc4ccccc4Cl)cc3)cn2)C1` belongs more than 99.5 µM; to `NCc1cccc(NC(=O)[C@H](NC(=O)OCc2ccccc2)c2cccc(-c3ccnc(N)c3)c2)c1`, 48.1 µM.
To `CC(C)(C)OC(=O)NCc1cccc(NC(=O)C[C@H](N)c2ccc(OCc3ccccc3)c(Br)c2)c1` belongs more than 99.5 µM.
The compound `N[C@H]1CCCc2ccc(NC(=O)c3cc(Cl)cc(NC(=O)OCc4ccccc4)c3)cc21` registered an IC50 of 12.1 µM.
To `C[C@H]1CC[C@@](Cc2nc3ccccc3[nH]2)(C(=O)Nc2cccc(CN)c2)CC1` belongs more than 99.5 µM; to `NC1(c2cccc(NC(=O)c3cc(Cl)cc(NC(=O)OCc4ccccc4)c3)c2)CCOCC1`, more than 99.5 µM.
To `Cc1ccc(OCc2ccccc2Cl)c(C(=O)Nc2cccc(CN)c2)c1` belongs 43.2 µM.
To `CS(=O)(=O)Nc1cc(Cl)cc(C(=O)Nc2cccc(CN)c2)c1` belongs more than 99.5 µM.
`CCc1cc(NC(=O)OCc2ccccc2)cc(C(=O)Nc2cccc(CN)c2)c1`: the half-inhibitory concentration (IC50) was 39.8 µM.
To `NCc1cc(Cl)cc(C(=O)Nc2cccc(C3CCNCC3)c2)c1` belongs 25.8 µM; to `COc1ccc(-c2cccc([C@H](NC(=O)OCc3ccccc3)C(=O)Nc3cccc(CN)c3)c2)c(C#N)c1`, 11.2 µM; to `NCc1cccc(NC(=O)[C@H](NC(=O)OCc2ccccc2)c2cccc(-c3ccccn3)c2)c1`, 82.4 µM.
To `CC(C)(CNCc1c[nH]c2ccccc12)c1cccnc1` belongs more than 99.5 µM; to `O=C(Nc1cc(Cl)cc(C(=O)Nc2cccc([C@H]3CCNC3)c2)c1)OCc1ccccc1`, 8.73 µM and 11.6 µM; to `NCc1cccc(NC(=O)c2cc(Cl)cc(NC(=O)NCc3ccccc3)c2)c1`, 2.1 µM.
To `COc1ccc(F)cc1-c1ccc(S(=O)(=O)Nc2cc(Cl)cc(C(=O)O)c2)cc1` belongs more than 99.5 µM.
As for `Brc1ccsc1CSc1cnn[nH]1`, the IC50 was more than 99.5 µM.
To `Clc1snnc1CN1CCC(c2nc3ccccc3o2)CC1` belongs more than 99.5 µM; to `CCCN(C)C(=O)Cn1ccnc(N2CC[C@H](CO)C2)c1=O`, more than 99.5 µM; to `NCc1ccc(NC(=O)[C@H]2[C@H]3CCCCC[C@H]3[C@H]2NC(=O)OCc2ccccc2)cc1`, 36.6 µM.
To `O=C(Nc1cc(Cl)cc(C(=O)Nc2nc([C@H]3CCCN3)cc(=O)[nH]2)c1)OCc1ccccc1` belongs 92 µM.
To `Brc1cccc2cn(Cc3ncccn3)nc12` belongs more than 99.5 µM; to `O=c1oc2cccnc2n1CC=Cc1ccccc1`, more than 99.5 µM; to `c1ccc2[nH]c(CC3CCN(Cc4nccs4)CC3)nc2c1`, more than 99.5 µM.
Turning to `Cn1c(Sc2nc3ccccc3o2)nc2sccc2c1=O`, the IC50 is more than 99.5 µM.
`O=C(Nc1cc(Cl)cc(C(=O)Nc2cccc(CO)c2)c1)OCc1ccccc1` displayed a 50% inhibitory concentration (IC50) of more than 99.5 µM.
To `NCc1cccc(NC(=O)[C@H](NC(=O)OCc2ccccc2)c2cccc(-c3ccc4c(c3)CC(=O)N4)c2)c1` belongs 8.83 µM; to `Cc1ccc(CN)cc1-c1cccc([C@H](NC(=O)OCc2ccccc2)C(=O)Nc2cccc(CN)c2)c1`, 18.2 µM; to `O=C(NCc1ccco1)c1csc(Br)c1`, more than 99.5 µM.
To `Nc1nc(S(=O)(=O)c2ccccc2)c(Cl)s1` belongs more than 99.5 µM; to `O=C(NCc1nccs1)c1sccc1Cl`, more than 99.5 µM.
To `N[C@H](CO)c1cccc(NC(=O)c2cc(Cl)cc(NC(=O)OCc3ccccc3)c2)c1` belongs 57.4 µM; to `CCNC(=O)Nc1cc(Cl)cc(C(=O)Nc2cccc(CN)c2)c1`, 0.659 µM; to `NC1CN(c2ncccc2NS(=O)(=O)c2ccc(Oc3ccccc3Cl)cc2)C1`, more than 99.5 µM.
Compound `NC1(c2cccc(NC(=O)c3cc(Cl)cc(NC(=O)OCc4ccccc4)c3)c2)CC1` returned an IC50 of more than 99.5 µM.
To `NCc1cccc(Oc2ccc(S(=O)(=O)Nc3ccc(Cl)cc3C(=O)NCC(F)(F)F)cc2)c1` belongs more than 99.5 µM; to `NC(=O)c1cccc(NC(=O)c2cc(Cl)cc(NC(=O)OCc3ccccc3)c2)c1`, more than 99.5 µM.
`O=c1ccc(-n2cncn2)nn1CC=Cc1ccccc1` yielded an IC50 of more than 99.5 µM.
`CCSc1nnc(SCCn2nc3ccccn3c2=O)s1` registered an IC50 of more than 99.5 µM.
To `O=c1ccccn1-c1ncc(Br)cn1` belongs more than 99.5 µM.
In the case of `C=C(C)c1cc(NC(=O)OCc2ccccc2)cc(C(=O)Nc2cccc(CN)c2)c1`, the IC50 was found to be 14.8 µM. That is a double-digit micromolar value.
In turn, `O=C(Cn1ccnc(N2CC[C@H](CO)C2)c1=O)N1CCOCC1` returned an IC50 of more than 99.5 µM.
To `O=c1c2cccn2cnn1Cc1cnc(Cl)s1` belongs more than 99.5 µM.
To `Cc1nnsc1Cn1ccc(Br)n1` belongs more than 99.5 µM.
To `O=c1c2ccccc2ncn1CCCn1cnc2ccccc2c1=O` belongs more than 99.5 µM; to `NC1(c2cc(C(F)(F)F)ccc2NS(=O)(=O)c2ccc(Oc3ccccc3Cl)cc2)CC1`, more than 99.5 µM.
On to `NCc1cccc(NC(=O)[C@H](NC(=O)OCc2ccccc2)c2ccc(OCc3ccccc3)c(Br)c2)c1`, for which 5.07 µM corresponded to half-maximal inhibition (IC50).
To `NCCc1cccc(NC(=O)[C@H]2[C@H]3CCCCC[C@H]3[C@H]2NC(=O)OCc2ccccc2)c1` belongs 7.87 µM.
To `NCc1cccc(CCc2cc(Cl)cc(NC(=O)OCc3ccccc3)c2)c1` belongs 9.6 µM.
To `COC(=O)c1cc2scc(Br)c2[nH]1` belongs more than 99.5 µM; to `C[C@@H](NCc1c[nH]c2ccccc12)c1cscn1`, more than 99.5 µM; to `NCc1cccc(NC(=O)C[C@H](CC(N)=O)c2ccc(F)cc2)c1`, more than 99.5 µM.
With `N[C@H]1CCc2ccc(NC(=O)c3cc(Cl)cc(NC(=O)OCc4ccccc4)c3)cc21`, inhibition was half-maximal at 8.42 µM (IC50).
To `CS(=O)(=O)Nc1c(Cl)cc(Cl)cc1C(=O)Nc1cccc(CN)c1` belongs more than 99.5 µM.
To `NCc1cccc(NC(=O)c2cc(Br)cnc2OCC2CC2)c1` belongs more than 99.5 µM; to `COc1ccc(COc2ccc([C@H](NC(=O)OCc3ccccc3)C(=O)Nc3cccc(CN)c3)cc2)cn1`, 38.8 µM.
To `NC1(c2ccccc2NS(=O)(=O)c2ccc(Oc3ccccc3Cl)cc2)CC1` belongs more than 99.5 µM; to `c1csc(CSc2nnc(Cn3cncn3)o2)c1`, more than 99.5 µM; to `N[C@H]1CCN(c2ccc(NS(=O)(=O)c3ccc(Oc4ccccc4Cl)cc3)cc2)C1`, 37.3 µM.
`NCc1cccc(NC(=O)[C@H](NC(=O)OCc2ccccc2)c2ccc(OCC3CCC3)cc2)c1` came in with an IC50 of 28.5 µM.
To `OC[C@H](Cc1cccnc1)NCc1c[nH]c2ccccc12` belongs more than 99.5 µM; to `CC(C)c1nc2c(C(=O)Nc3cccc(CN)c3)cccc2[nH]1`, 14.3 µM.
To `COc1cc(C(=O)Nc2cccc(CN)c2)cc(NC(=O)OCc2ccccc2)c1Cl` belongs 38.1 µM; to `c1csc(-c2nnc(Sc3ncnc4sccc34)o2)c1`, more than 99.5 µM; to `NCc1cccnc1NS(=O)(=O)c1ccc(Oc2ccccc2Cl)cc1`, more than 99.5 µM.
To `N[C@H]1CCOc2ccc(NC(=O)c3cc(Cl)cc(NC(=O)OCc4ccccc4)c3)cc21` belongs 10.6 µM; to `O=C(O)C[C@H](NC(=O)OCc1ccccc1)c1ccc(OCc2ccccc2)c(Br)c1`, more than 99.5 µM.
